According to US8092785B2, “Process for milling poorly soluble drugs in presence of liquid propellants” (Glaxo Group Limited, priority 2004, dated 2012):

What was measured:
[1] = Physical form of milled, co-milled or spray dried product by XRPD; format: physicochemical
Experimental: Drug substance prepared according to the present invention maybe characterised by a series of physical analytical techniques well known to those skilled in the art for analysing physical form, for instance XPRD, polarised light microscopy (PLM), thermal analysis, FT-IR and laser diffraction particle sizing.
500 mg of drug or drug:polymer blend (PVP K30, PVP/VA 64 (BASF) and PVP/VA 37 (BASF)) (1:2 w/w) was ball milled in a mixer mill (MM2 Mixer mill, Glen Creston Ltd). The sample was milled at 17.5 1/sec in a 25 ml chamber for 120 minutes at 2% w/v with 2×12 mm diameter and 6×7 mm diameter stainless steel ball bearings.
500 mg of drug or drug:polymer blend (PVP K30) (1:2 w/w) was placed in a 25 ml milling chamber (2% w/v). Grinding media of 2×5 mm, 2×7 mm, 2×9 mm and 2×12 mm ball bearings were added. 10 g of 134a (Du Pont) was then added into the milling chamber via a valve. The sample was then milled for 2×20 minute periods at a frequency of 25 1/sec using a Retsch MM200 Mixer mill.
XPRD patterns of resultant products are shown as FIG. 1.1 to 1.4.
500 mg of drug and 1 g of polymer (1:2 w/w) was placed in a 25 ml measuring chamber. Grinding media of 2 mm Yttrium-Zirconium beads (equivalent volume 5 ml) were added. 12 ml of propellant 134a was then added into the milling chamber via a valve. The sample was then milled for 30 minutes at a frequency of 25 1/sec using a Retsch MM200 Mixer mill.
Drug (2 g) and polymer (3 g) were dissolved in approximately 200 ml of dimethyl formamide and spray dried at approximately 2 ml/min using a lab scale spray drier (Buchi B191, outlet temperature about 95° C.). The spray dried powders were then further dried at 65° C. under vacuum for 48 hrs. The dispersions were amorphous by XRPD.
Thus, the co-milling process has not compromised the physical form of compound A.

[2] = design: key: Those in class II have low solubility and high permeability; those in class IV have low solubility and low permeability; details: classified according to solubility and permeability (Amidon et al); cited from earlier work
[3] = Dissolution testing of ball milled and 134a ball milled products (USP II apparatus, sink conditions); format: physicochemical; details: neat drug ball milled in 134a, 37.5° C., 50 RPM
Experimental: The dissolution profiles of study compounds prepared by ball milling and 134a ball milling were measured according to the following method:
Dissolution testing was carried out under sink conditions using a VanKel USP II dissolution apparatus (fluid pump Model 17-2300, water bath VK750D, water bath stirrer VK7010). Dissolution testing was carried out at 37.5° C.+/−0.5° C. (Digitron Type K thermocouple thermometer). Vessels were stirred at 50 RPM. Samples underwent online UV analysis (Hewlett Packard 8453) at time points 0, 2, 5, 10, 15, 20, 30, 45 and 60 minutes. Samples were filtered with a 10 μm filters (Anachem). The pH 6.8 0.1M phosphate buffer^1 was degassed prior to commencement of the dissolution run (Copley Dissofill, model DSF2). Standard curves were prepared by dissolving drug in acetonitrile:water (1:1) for carbamazepine and glibenclamide or acetonitrile:pH 6.8 buffer (1:1) for dipyridamole and indomethacin. Drug concentration, UV cell path length, dissolution media and wavelength of detection were all compound specific. All analysis was carried out in triplicate. ^1 pH 6.8 buffer: 20 l prepared by addition of 10 l of Na2HPO4.2H2O 17.8 g/l to 10 l of NaH2PO4.H2O 13.8 g/l. pH was confirmed using a pH meter.

[4] = Particle size of milled product (SEM analysis / particle sizing); format: physicochemical
Experimental: Drug substance prepared according to the present invention maybe characterised by a series of physical analytical techniques well known to those skilled in the art for analysing physical form, for instance XPRD, polarised light microscopy (PLM), thermal analysis, FT-IR and laser diffraction particle sizing. 500 mg of drug or drug:polymer blend (PVP K30, PVP/VA 64 (BASF) and PVP/VA 37 (BASF)) (1:2 w/w) was ball milled in a mixer mill (MM2 Mixer mill, Glen Creston Ltd). The sample was milled at 17.5 1/sec in a 25 ml chamber for 120 minutes at 2% w/v with 2×12 mm diameter and 6×7 mm diameter stainless steel ball bearings. 500 mg of drug or drug:polymer blend (PVP K30) (1:2 w/w) was placed in a 25 ml milling chamber (2% w/v). Grinding media of 2×5 mm, 2×7 mm, 2×9 mm and 2×12 mm ball bearings were added. 10 g of 134a (Du Pont) was then added into the milling chamber via a valve. The sample was then milled for 2×20 minute periods at a frequency of 25 1/sec using a Retsch MM200 Mixer mill.

[5] = ball milling with propellant 134a, 2×20 minute
[6] = conventional ball milling, 120 minutes, no propellant
[7] = ball milling with 134a, compared to conventionally milled product

physical form of product [1, 6] | dissolution rate [3] | particle size [4, 7] | particle size ([4]; conventional ball milling) | SMILES | physical form of product [1, 5] | Biopharmaceutics Classification system class [2]
predominantly amorphous product | improved in dissolution rate | – | – | OCCN(CCO)c1nc(N2CCCCC2)c2nc(N(CCO)CCO)nc(N3CCCCC3)c2n1 [dipyridamole] | dipyridamole form II | II
amorphous product | – | significant decrease in particle size | – | COc1ccc(Cl)cc1C(=O)NCCc1ccc(S(=O)(=O)NC(=O)NC2CCCCC2)cc1 [glibenclamide] | remained in the same crystalline form as the starting material | II
predominantly amorphous product | – | significant decrease in particle size | – | COc1ccc2c(c1)c(CC(=O)O)c(C)n2C(=O)c1ccc(Cl)cc1 [indomethacin] | γ form | II

SMILES | physical form of product [1, 6] | dissolution rate [3] | particle size [4, 7] | particle size ([4]; conventional ball milling) | physical form of product [1, 5] | Biopharmaceutics Classification system class [2]
NC(=O)N1c2ccccc2C=Cc2ccccc21 [carbamazepine, Carbamazepine] | conversion to a crystalline form, form III | – | significant decrease in particle size | no significant decrease in particle size | complete conversion to a crystalline form, form III | II
